What all share (format): cell-based, human
For assay [1], the system named is cystatin E/M. The assay can be described thus: Immunofluorescence of cystatin E/M protein in treated HeLa cells. The note with it: 24 hours post-treatment, 5 μM 5-AzaCdR. The text has this:
(§1) To verify that cystatin E/M expression was not limited to RNA synthesis and to identify the cellular location of protein expression, immunofluorescence (IF) was used. Cystatin E/M expression was absent in the untreated HeLa cells. […] There was uniform expression in the cytoplasm of all cells. […] Thus, re-expression of the gene by treatment with 5-AzaCdR and TSA in HeLa and SiHa cells, respectively, confirmed promoter methylation and/or histone deacetylation playing a role in the inactivation of cystatin E/M expression in these two cell lines.
(§2) Cells were grown overnight on cover slips to semiconfluency (about 70 to 80%) and treated with 5- AzaCdR or TSA, or transfected with plasmid DNAs. Immunofluorescence was performed using the anti cystatin E/M antibody (R & D Systems, Minneapolis, Minn.) following an established protocol. See LoTempio et al. (2005).

For assay [2], the system named is cystatin E/M gene. The assay can be described thus: RT PCR analysis of cystatin E/M expression in treated SiHa cells.
For assay [3], the system named is cystatin E/M gene promoter. The assay can be described thus: Sodium bisulfite PCR and sequencing of cystatin E/M promoter CpG methylation in HeLa cells. As to conditions: HeLa cells after treatment with 5-AzaCdR. The procedure:
Having established the promoter activity, four different cell lines and 18 primary tumors were examined for CpG methylation using the sodium bisulfite protocol. Normal endometrium from 16 of the tumors, four different non-involved normal lymphocytes and a lung tissue were used as controls. The analysis was performed using the sequences spanning the −14 to −151 by region of the promoter (NT—033903.7). […] Untreated HeLa cells yielded the 138 by product with the methylation specific PCR. Cell lines Caski, C41, C33A, three of 21 normal tissues (14%) and 7 of 16 tumors (44%) gave the PCR product with both the unmethylation and methylation specific PCRs. Five other tumors (31%) contained only the methlyation specific product. Thus, there was a significant frequency of methylated promoter in the cervical tumors ([…] in tumors versus 3 of 21, 14% in normals, P<0.01, Student's t-test). Methylation in the three normal endometrial tissues could also represent tumor cell contamination. Four of the tumors contained methylation and point mutation (Table 1, FIG. 4A) indicating possible two hits for the functional inactivation of the cystatin E/M gene.
To confirm promoter hypermethylation in the cell lines, sequencing was carried out on the PCR products cloned into the pTOPO plasmid vector. […]

Assay [4] relates to cystatin E/M. As to the kind of experiment: Immunofluorescence of cystatin E/M protein in treated SiHa cells. As to conditions: TSA treatment.
From the text: as §1, §2

Turning to `Nc1ncn([C@H]2C[C@H](O)[C@@H](CO)O2)c(=O)n1` [5-AzaCdR, 5′Aza 2-deoxycytidine], in assay [1], the “cystatin E/M protein expression by immunofluorescence” value is “cystatin E/M expression was observed”. Moreover, the “cystatin E/M RNA expression” value in assay [2] (5 μM and 10 μM 5-AzaCdR) is recorded as “did not show expression”; in assay [2] (50 μM 5-AzaCdR), “low level expression”. In addition, the “methylation of C residues in promoter CpG sequences” value in assay [3] is “demethylation of the C residues”.
Regarding `CC(/C=C/C(=O)NO)=C\[C@@H](C)C(=O)c1ccc(N(C)C)cc1` [TSA, Trichostatin A], the “cystatin E/M protein expression by immunofluorescence” value in assay [4] is reported as “uniform cytoplasmic protein expression”. Also, in assay [2] (TSA 150 μM), the “cystatin E/M RNA expression” value is listed as “High level RNA expression”.

These data come from patent publication US20110098242A1, “Methods and Compositions for Diagnosing and Treating Cervical Intraepithelial Neoplasia and Cervical Cancer” (priority 2008, published 2011).
